Measurements published in PMC13266999, “Designing Antibiotics with Inherent Resistance to Efflux as a Strategy to Revive Discovery against Multidrug-Resistant Pathogens” (Journal of Medicinal Chemistry, 2026).
In brackets after ≈: the same amount, converted by molar mass. Several values for one entry are separate records, joined by “and”; a condition that tells them apart may be missing. Equal values may be shown once. Read-outs that look alike come from different tables or passages of the source.

Legend:
A. baumannii = A. baumannii efflux chequerboard assay; assay type: cell-based, Acinetobacter baumannii; conditions: for MIC: Acinetobacter baumannii
Method: Checkerboard assays were performed by preparing two separate 2-fold dilution series of compounds in two 96 well plates, one horizontally, one vertically. […] Plates were incubated at 37 C for 20 h and the absorbance (OD600) was read on a CLARIOstar spectrophotometer (BMG Labtech). The fractional inhibitory concentration was calculated as follows: ΣFIC = [(MIC of A in combination)/(MIC of A alone)] + [(MIC of B in combination)/(MIC of B alone)].

[1] = system: NorA overexpressing strain NCTC 13616; experiment: Reserpine growth (efflux inhibition) assay; conditions: for AUC of growth curve: biological replicates 1-3
S. aureus = experiment: MIC (microbroth dilution); assay type: cell-based, Staphylococcus aureus; conditions: for fold difference in MIC, SA-1199B vs SA-1199: NorA-overexpressing vs WT; for MIC: Staphylococcus aureus
Method: (§1) All bacteria were maintained on tryptic soy agar (TSA), except Streptococcus spp., which were maintained on Columbia agar plates containing 5% horse blood. […] Bacteria were grown to stationary phase in liquid culture overnight, with shaking at 200 rpm, before being back diluted to the relevant starting concentration for each assay below. MICs were measured by the microbroth dilution method. […] Absorbance at OD600 was read on a CLARIOstar spectrophotometer (BMG Labtech) and the MIC was defined as the minimum concentration of compound where no visible growth was detected. […] MICs were also performed in the presence of the outer membrane permeator, polymyxin b nonapeptide (PMBN) following the same MIC method but with the following variation. The 2-fold dilution series of compound was prepared as above, then 50 μL of PMBN at a final concentration of 30 μg/mL was added to relevant wells, while 50 μL/well of blank media was added to the remaining wells. Bacteria were then added at 50 μL/well for a starting concentration as above. […] The MICs were read and defined as above. All animal procedures were performed by the contract research organization Pharmacology Discovery Services Taiwan in accordance with the Guide for the Care and Use of Laboratory Animals. The procedures were approved by the Institutional Ethics Committee of Pharmacology Discovery Services Taiwan, Ltd. (approval no. AB127662), in compliance with animal welfare legislation in Taiwan.

E. faecalis = experiment: MIC (microbroth dilution); assay type: cell-based, Enterococcus faecalis; conditions: Enterococcus faecalis, read-out: MIC
Method: as §1

[2] = ATCC17978, A. baumannii ATCC 17978, read-out: MIC alone
[3] = A. baumannii AYE, read-out: MIC alone
[4] = ATCC9144, ATCC 9144, read-out: MIC
[5] = NCTC13277, NCTC 13277, read-out: MIC
[6] = NCTC13616, NCTC 13616, read-out: MIC

Row | Molecule | MIC +50 (0.25x MIC) (A. baumannii; A. baumannii ATCC 17978) [µg/mL] | MIC +50 (0.5x MIC) (A. baumannii; A. baumannii ATCC 17978) [µg/mL] | MIC +50 (0.25x MIC) (A. baumannii; A. baumannii AYE) | MIC (S. aureus; [4]) [µg/mL] | MIC (S. aureus; [5]) [µg/mL] | MIC (S. aureus; [6]) [µg/mL] | MIC (S. aureus; SA-1199, read-out: MIC) [µg/mL] | MIC (S. aureus; SA-1199B (NorA-overexpressing)) [µg/mL] | MIC +50 (0.5x MIC) (A. baumannii; A. baumannii AYE) [µg/mL] | further results
1 | CNC(C)C1CCC(N)C(OC2C(N)CC(N)C(OC3OCC(C)(O)C(NC)C3O)C2O)O1 (centres unmarked) [Gentamicin] | 2.13 to 4.25 | 0.03 to 1.75 | >1,024 μg/mL | – | – | – | – | – | – | MIC (A. baumannii; [2]): 4 µg/mL; MIC (A. baumannii; [3]): > 1020 µg/mL
2 | C[C@H]1COc2c(N3CCC(Nc4ncccn4)C3)c(F)cc3c(=O)c(C(=O)O)cn1c23 (stereo partly drawn) [Compound 43, (3S)-9-Fluoro-3-methyl-7-oxo-10-(3-(pyrimidin-2-ylamino)pyrrolidin-1-yl)-2,3-dihydro-7H-[1,4]oxazino[2,3,4-ij]quinoline-6-carboxylic acid] | – | – | – | 0.125 (≈ 0.294 µM) | 2 (≈ 4.7 µM) | 2 (≈ 4.7 µM) | 0.016 (≈ 0.0376 µM) | 0.03 (≈ 0.0705 µM) | – | AUC of growth curve ([1]; 0.25 MIC + R (reserpine)): 2.601 and 2.681 and 2.535; AUC of growth curve ([1]; 0.25 MIC): 3.079 and 3.208 and 2.944; AUC of growth curve ([1]; 0.5 MIC + R (reserpine)): 0.9550 and 0.7355 and 0.8940; AUC of growth curve ([1]; 0.5 MIC): 1.061 and 0.9440 and 1.050; efflux liability in reserpine assay ([1]; 0.5x MIC with vs without reserpine): did not demonstrate efflux liability; fold difference in MIC, SA-1199B vs SA-1199 (S. aureus): 2 fold; fold potentiation compared to levofloxacin (S. aureus; fluoroquinolone-resistant NCTC 13616 and NCTC 13277): 8 fold
3 | CC(C)(O/N=C(\C(=O)N[C@@H]1C(=O)N2C(C(=O)[O-])=C(C[n+]3ccccc3)CS[C@H]12)c1csc(N)n1)C(=O)O [Ceftazidime] | 0.94 to 3.76 | 0.003 to 0.438 | >1,024 μg/mL | – | – | – | – | – | 3.76 to 224 | MIC (A. baumannii; [2]): 4 to 16 µg/mL; MIC (A. baumannii; [3]): > 1020 µg/mL
4 | NC[C@H]1O[C@H](O[C@H]2[C@H](O)[C@@H](O[C@H]3O[C@H](CO)[C@@H](O)[C@H](N)[C@H]3O)[C@H](N)C[C@@H]2N)[C@H](N)C[C@@H]1O [Tobramycin] | 1.88 to 3.76 | 0.014 to 0.55 | 56 to 248 µg/mL | – | – | – | – | – | 0.375 to 136 | MIC (A. baumannii; [2]): 4 µg/mL; MIC (A. baumannii; [3]): 256 µg/mL
5 | O=C(O)c1cn(C2CC2)c2c(Cc3cccc4ccccc34)c(N3CCNCC3)c(F)cc2c1=O [Compound 19, 1-Cyclopropyl-6-fluoro-8-(naphthalen-1-ylmethyl)-4-oxo-7-(piperazin-1-yl)-1,4-dihydroquinoline-3-carboxylic acid] | – | – | – | 64 (≈ 136 µM) | 32 (≈ 67.9 µM) | 32 (≈ 67.9 µM) | 16 (≈ 33.9 µM) | 16 (≈ 33.9 µM) | – | MIC (E. faecalis; NCTC775, NCTC 775): 16 µg/mL (≈ 33.9 µM); MIC (E. faecalis; NCTC12201, NCTC 12201): 16 µg/mL (≈ 33.9 µM); MIC (E. faecalis; NCTC12204, NCTC 12204): 16 µg/mL (≈ 33.9 µM); MIC (S. aureus; USA300, USA300, read-out: MIC): 32 µg/mL (≈ 67.9 µM)
6 | Colistin | 0.015 to 0.123 | 0.0017 to 0.015 | 0.015 µg/mL | – | – | – | – | – | 0.003 to 0.007 | MIC alone (A. baumannii; A. baumannii ATCC 17978): 0.25 µg/mL; MIC alone (A. baumannii; A. baumannii AYE): 0.25 to 0.5 µg/mL
7 | C[C@H]1COc2c(N3CCN(c4ncccn4)CC3)c(F)cc3c(=O)c(C(=O)O)cn1c23 [Compound 42, (S)-9-Fluoro-3-methyl-7-oxo-10-(4-(pyrimidin-2-yl)piperazin-1-yl)-2,3-dihydro-7H-[1,4]oxazino[2,3,4-ij]quinoline-6-carboxylic acid] | – | – | – | 0.06 (≈ 0.141 µM) | > 32 | 8 (≈ 18.8 µM) | 0.06 (≈ 0.141 µM) | 0.25 (≈ 0.588 µM) | – | AUC of growth curve ([1]; 0.25 MIC + R (reserpine)): 1.819 and 2.376 and 1.866; AUC of growth curve ([1]; 0.25 MIC): 2.249 and 2.537 and 2.169; AUC of growth curve ([1]; 0.5 MIC + R (reserpine)): 1.376 and 1.633 and 1.162; AUC of growth curve ([1]; 0.5 MIC): 1.682 and 1.538 and 1.705; fold difference in MIC, SA-1199B vs SA-1199 (S. aureus): 4 fold
8 | O=C(O)c1cn(C2CC2)c2cc(N3CCN[C@@H](Cc4cccc5ccccc45)C3)c(F)cc2c1=O [Compound 12, (S)-1-Cyclopropyl-6-fluoro-7-(3-(naphthalen-1-ylmethyl)piperazin-1-yl)-4-oxo-1,4-dihydroquinoline-3-carboxylic acid] | – | – | – | 4 (≈ 8.48 µM) | 8 (≈ 17 µM) | 8 (≈ 17 µM) | 2 (≈ 4.24 µM) | 4 (≈ 8.48 µM) | – | MIC (E. faecalis; NCTC775, NCTC 775): 8 µg/mL (≈ 17 µM); MIC (E. faecalis; NCTC12201, NCTC 12201): 8 µg/mL (≈ 17 µM); MIC (E. faecalis; NCTC12204, NCTC 12204): 8 µg/mL (≈ 17 µM); MIC (S. aureus; USA300, USA300, read-out: MIC): 8 to 16 µg/mL (≈ 17 to 33.9 µM)
9 | C[C@H]1COc2c(N3CC[C@@H](Nc4cnccn4)C3)c(F)cc3c(=O)c(C(=O)O)cn1c23 [Compound 48, (S)-9-Fluoro-3-methyl-7-oxo-10-((R)-3-(pyrazin-2-ylamino)pyrrolidin-1-yl)-2,3-dihydro-7H-[1,4]oxazino[2,3,4-ij]quinoline-6-carboxylic acid] | – | – | – | ≤ 0.125 | 1 (≈ 2.35 µM) | 1 (≈ 2.35 µM) | 0.03 (≈ 0.0705 µM) | 0.125 (≈ 0.294 µM) | – | –
10 | O=C(N[C@H](CO)[C@H](O)c1ccc([N+](=O)[O-])cc1)C(Cl)Cl [Chloramphenicol] | 60 | 56 | 120 µg/mL | – | – | – | – | – | 224 | MIC (A. baumannii; ATCC17978, read-out: MIC alone): 64 µg/mL; MIC (A. baumannii; read-out: MIC alone): 128 µg/mL
11 | c1ccc2c(CN3CCNCC3)cccc2c1 [NMP, 1-(naphthalen-1-ylmethyl)piperazine, reference compound] | – | – | – | – | – | – | – | – | – | fold improvement over ciprofloxacin alone (S. aureus; fluoroquinolone-resistant S. aureus strains): 2 fold
12 | Cc1cc(N[C@@H]2CCN(c3c(F)cc4c(=O)c(C(=O)O)cn5c4c3OC[C@@H]5C)C2)ncn1 [Compound 49, (S)-9-Fluoro-3-methyl-10-((R)-3-((6-methylpyrimidin-4-yl)amino)pyrrolidin-1-yl)-7-oxo-2,3-dihydro-7H-[1,4]oxazino[2,3,4-ij]quinoline-6-carboxylic acid] | – | – | – | 0.016 (≈ 0.0364 µM) | 0.5 (≈ 1.14 µM) | 0.25 (≈ 0.569 µM) | 0.016 (≈ 0.0364 µM) | 0.016 (≈ 0.0364 µM) | – | –
13 | CCn1cc(C(=O)O)c(=O)c2cc(F)c(N3CCN(Cc4ccc5ccccc5c4)CC3)cc21 [Compound 24, 1-Ethyl-6-fluoro-7-(4-(naphthalen-2-ylmethyl)piperazin-1-yl)-4-oxo-1,4-dihydroquinoline-3-carboxylic acid] | – | – | – | 0.25 (≈ 0.544 µM) | 4 (≈ 8.7 µM) | 4 (≈ 8.7 µM) | – | – | – | –
